# From patent US20200368211A1, “INHIBITION OF GAMMA-GLUTAMYLTRANSFERASE AND GLUTATHIONE CATABOLISM TO ENHANCE THE EFFICACY OF NF-KB SIGNALLING PATHWAY INHIBITORS” (UNIVERSITAET HEIDELBERG, priority 2017, published 2020)
# Like-named read-outs stand apart in the source and are kept apart here.
# How the values were obtained:
# Format in all cases: cell-based, human
# [1] = tested on: MOLM13 cells; assay: MTT cell proliferation assay, MOLM13 cells
# Method: For metabolic activity assays, here MTT-assays, cell density was 3×10^4 cells per well (96 well plate). For ROS/superoxide detection assays cell density was 1×10^5 per tube (volume 1 ml). […] The MTT or XTT assay is the most reliable for assessment of cell growth. In principal all assays are based on staining of viable cells after treatment. Cytotoxic effects in cell lines may also be assessed by [^3H] thymidine incorporation (see below). Cell proliferation was assessed by the MTT assay. […] The plates were incubated for 72 h under standard conditions. After addition of 15 μl of a 5 mg/ml MTT solution (MTT; Sigma, Germany) to each well and incubation for another 4 h, 100 μl/well of a 10% sodium dodecyl sulphate solution in 0.01 M hydrochloric acid were added and the plates were incubated overnight under the same conditions (stain development). Subsequently, the absorbance of each well at 540 nm (reference wavelength 690 nm) was recorded with an absorbance plate reader (Sunrise, Tecan, Switzerland). Blank control values (no drug, no cells) were subtracted from the sample values and the means of replicate wells for each drug dilution and the control (cells grown in absence of the drug) were used to calculate the extent of relative cell proliferation (as percentage of the control) and growth inhibition.
# [2] = tested on: HL60 cells; assay: MTT cell proliferation assay, HL60 cells
# Method: For assessment of cytostatic and/or cytotoxic effects HL60 cells were washed in serum-free RPMI-1640 medium supplemented with 2 mM L-glutamine and 1% penicillin/streptomycin and diluted to 1.25×10^5/ml (logarithmic cell growth). Cells were incubated with OU749 for 10 minutes prior to addition of serum (FCS or HS, both 10%) to washed cells resulting in a density of 1.11×10^5/ml. For MTT-assays cell density was 1×10^4 cells per well (96 well plate).
# The MTT or XTT assay is the most reliable for assessment of cell growth. In principal all assays are based on staining of viable cells after treatment. Cytotoxic effects in cell lines may also be assessed by [^3H] thymidine incorporation (see below). Cell proliferation was assessed by the MTT assay. After washing in serum-free medium, pre-incubation with inhibitors of the glutathione catabolism, and addition of defined serum or albumin or serum+albumin concentrations, 90-μl aliquots of the cell suspension (density see above) were dispensed into 96-well flat-bottomed microtitre plates containing 10 μl/well of serial drug dilutions. The plates were incubated for 72 h under standard conditions. After addition of 15 μl of a 5 mg/ml MTT solution (MTT; Sigma, Germany) to each well and incubation for another 4 h, 100 μl/well of a 10% sodium dodecyl sulphate solution in 0.01 M hydrochloric acid were added and the plates were incubated overnight under the same conditions (stain development). Subsequently, the absorbance of each well at 540 nm (reference wavelength 690 nm) was recorded with an absorbance plate reader (Sunrise, Tecan, Switzerland). Blank control values (no drug, no cells) were subtracted from the sample values and the means of replicate wells for each drug dilution and the control (cells grown in absence of the drug) were used to calculate the extent of relative cell proliferation (as percentage of the control) and growth inhibition. Since inhibitors were initially dissolved in DMSO, serial drug dilutions and controls were prepared to finally achieve 0.2% DMSO in all wells (total volume 100 μl); no anti-proliferative effects could be observed at this DMSO concentration in the investigated cell lines.
# After washing in serum-free medium cells were diluted to desired density (3.70×10^5/ml for MEC1 and MOLM13, 1.25×10^5/ml for HL60) and HS and FCS was added both in a final concentration of 10%. Then 90-μl aliquots of the cell suspension (densities after addition of serum: 3.33×10^5/ml for MEC1 and MOLM13, 1.1×10^5/ml for HL60) were dispensed into 96-well flat-bottomed microtitre plates containing 10 μl/well of serial drug dilutions of NF-κB inhibitors. The cell concentrations in the 96 well plate were: 3×10^4/well for MEC1 and MOLM13, 1×10^4/well for HL60.
# Then 90-μl aliquots of the cell suspension (densities after addition of serum: 3.33×10^5/ml for MEC1 and MOLM13, 1.1×10^5/ml for HL60) were dispensed into 96-well flat-bottomed microtitre plates containing 10 μl/well of serial drug dilutions of NF-κB inhibitors. The cell concentrations in the 96 well plates were: 3×10^4/well for MEC1 and MOLM13, 1×10^4/well for HL60.
# [3] = tested on: MEC1 cells; assay: Intracellular ROS/superoxide detection by flow cytometry, MEC1 cells; conditions: 10% FCS (OU749 100 μM) and 10% HS (OU749 200 μM); sorafenib 10 μM
# Method: (§1) Intracellular ROS/superoxide levels were assessed by the ROS/superoxide Detection Assay Kit (ab139476, Abcam, Cambridge, UK) according to the manufacturer's protocol.
# (§2) Cells were incubated with OU749 for 10 minutes prior to addition of serum or albumin (FCS or HS, both 10%, BSA or different HSA preparations as indicated), or albumin-supplemented FCS (supplementation with HSA or BSA: final albumin concentration 4-5 mg/ml). The final cell concentration was 1×10^5/ml/tube (volume 1 ml). Mean fluorescence intensities of at least 10000 events were assessed and compared.
# (§3) ROS and superoxide levels were assessed by flow cytometry using the cellular ROS/superoxide Detection Assay Kit (ab139476, Abcam, Cambridge, UK) according to the manufacturer's protocol. […] Mean fluorescence intensities of at least 10000 events were assessed and compared.
# [4] = tested on: MOLM13 cells; assay: Intracellular ROS/superoxide detection by flow cytometry, MOLM13 cells; conditions: 10% FCS (OU749 100 μM) and 10% HS (OU749 200 μM); sorafenib 10 nM
# Method: as §1, §2, §3
# [5] = 10% HS, DMSO control, 72 h treatment, read-out: IC50, proliferation of MOLM13 cells in HS, DMSO control
# [6] = 10% HS, plus 200 μM OU749, 72 h treatment, read-out: IC50, proliferation of MOLM13 cells in HS after addition of OU749
# [7] = 10% fetal calf serum, 72 h treatment, read-out: IC50, proliferation of MOLM13 cells, FCS 10%
# [8] = 10% human serum, 72 h treatment, read-out: IC50, proliferation of MOLM13 cells, HS 10%
# [9] = 10% HS, DMSO control, 72 h treatment, read-out: IC50, proliferation of HL60 cells in HS, DMSO control
# [10] = 10% HS, plus 200 μM OU749, 72 h treatment, read-out: IC50, proliferation of HL60 cells in HS after addition of OU749
# [11] = 10% fetal calf serum, 72 h treatment, read-out: IC50, proliferation of HL60 cells, FCS 10%
# [12] = 10% human serum, 72 h treatment, read-out: IC50, proliferation of HL60 cells, HS 10%
# [13] = Homo sapiens, MOLM-13, 10% HS, DMSO control, 72 h treatment, read-out: IC50, proliferation of MOLM13 cells in HS, DMSO control
# [14] = Homo sapiens, MOLM-13, 10% HS, plus 200 μM OU749, 72 h treatment, read-out: IC50, proliferation of MOLM13 cells in HS after addition of OU749
# [15] = Homo sapiens, MOLM-13, 10% fetal calf serum, 72 h treatment, read-out: IC50, proliferation of MOLM13 cells, FCS 10%
# [16] = MOLM-13, 10% human serum, 72 h treatment, read-out: IC50, proliferation of MOLM13 cells, HS 10%
# [17] = HL-60, 10% human serum, 72 h treatment, read-out: IC50, proliferation of HL60 cells, HS 10%
# [18] = Homo sapiens, HL-60, 10% HS, DMSO control, 72 h treatment, read-out: IC50, proliferation of HL60 cells in HS, DMSO control
# [19] = Homo sapiens, HL-60, 10% HS, plus 200 μM OU749, 72 h treatment, read-out: IC50, proliferation of HL60 cells in HS after addition of OU749
# [20] = Homo sapiens, HL-60, 10% fetal calf serum, 72 h treatment, read-out: IC50, proliferation of HL60 cells, FCS 10%
compound,measurement,setting,value
Cc1ccc(S(=O)(=O)/C=C/C#N)cc1 [Bay 11-7082],IC50,[1]; [5],12.6 ± 3.51 µM
same,IC50,[1]; [6],5.68 ± 0.08 µM
same,IC50,[1]; [7],2.04 ± 0.2 µM
same,IC50,[1]; [8],12.6 ± 3.51 µM
same,IC50,[2]; [9],5.04 ± 0.32 µM
same,IC50,[2]; [10],2.9 ± 0.16 µM
same,IC50,[2]; [11],2.47 ± 0.3 µM
same,IC50,[2]; [12],5.04 ± 0.32 µM
same,"Intracellular ROS, NF-κB inhibitor in combination with γ-GT inhibitor, MEC1",[3],increases the levels of intracellular ROS
same,"Intracellular ROS, NF-κB inhibitor in combination with γ-GT inhibitor, MOLM13",[4],increases the levels of intracellular ROS
O=C1/C(=C/c2ccccc2F)CNC/C1=C\c1ccccc1F [EF24],IC50,[1]; [5],8.53 ± 0.3 µM
same,IC50,[1]; [6],0.84 ± 0.68 µM
same,IC50,[1]; [7],0.3 ± 0.03 µM
same,IC50,[1]; [8],8.53 ± 0.3 µM
same,IC50,[2]; [9],4.27 ± 0.1 µM
same,IC50,[2]; [10],0.67 ± 0.15 µM
same,IC50,[2]; [11],1.75 ± 0.33 µM
same,IC50,[2]; [12],4.27 ± 0.1 µM
same,"Intracellular ROS, NF-κB inhibitor in combination with γ-GT inhibitor, MEC1",[3],increases the levels of intracellular ROS
same,"Intracellular ROS, NF-κB inhibitor in combination with γ-GT inhibitor, MOLM13",[4],increases the levels of intracellular ROS
"Cc1oncc1C(=O)Nc1ccc(C(F)(F)F)cc1 [Leflunomide, leflunomide]",IC50,[1]; [13],175 ± 48.7 µM
same,IC50,[1]; [14],50.2 ± 2 µM
same,IC50,[1]; [15],14.8 ± 3.55 µM
same,IC50,[1]; [16],175 ± 48.7 µM
same,IC50,[2]; [17],77.1 ± 2.91 µM
same,IC50,[2]; [18],77.1 ± 2.91 µM
same,IC50,[2]; [19],20.3 ± 4.53 µM
same,IC50,[2]; [20],16.3 ± 1.12 µM
same,"Intracellular ROS, NF-κB inhibitor in combination with γ-GT inhibitor, MEC1",[3],increases the levels of intracellular ROS
same,"Intracellular ROS, NF-κB inhibitor in combination with γ-GT inhibitor, MOLM13",[4],increases the levels of intracellular ROS
"CNC(=O)c1cc(Oc2ccc(NC(=O)Nc3ccc(Cl)c(C(F)(F)F)c3)cc2)ccn1 [Sorafenib, sorafenib]",IC50,[1]; [13],0.037 ± 1e-05 µM
same,IC50,[1]; [14],0.003 ± 0.0009 µM
same,IC50,[1]; [15],0.002 µM
same,IC50,[1]; [16],0.037 µM
same,IC50,[2]; [17],35.2 ± 10 µM
same,IC50,[2]; [18],35.2 ± 10.3 µM
same,IC50,[2]; [19],9.65 ± 1.06 µM
same,IC50,[2]; [20],1.44 µM
same,"Intracellular ROS, NF-κB inhibitor in combination with γ-GT inhibitor, MEC1",[3],increases the levels of intracellular ROS
same,"Intracellular ROS, NF-κB inhibitor in combination with γ-GT inhibitor, MOLM13",[4],increases the levels of intracellular ROS
